Assay results: paper PMC5871694, “S-Adenosyl-L-Homocysteine Hydrolase Inhibition by a Synthetic Nicotinamide Cofactor Biomimetic” (Frontiers in Microbiology, 2018)
“And” between values parts separate entries of the source, which are not always exact repeats. Equal entries are not always repeated. Where two headings read alike, the source gives them in different places.

What was measured:
bovine liver SAHase = molecular target: bovine liver SAHase; set-up: method as in Porter and Boyd, 1992; conditions: cited from earlier work
[1] = molecular target: T1, Bradyrhizobium elkanii SAHase (BeSAHase) (Bradyrhizobium elkanii, UniProt A0A087WNH6); test: Isothermal titration calorimetry (ITC); type: binding; conditions: for KD: apo-BeSAHase titrated with cofactor, 25°C, pH 7; for binding to apo-BeSAHase: titration of apo-BeSAHase; for binding to holo-BeSAHase: titration of holo-BeSAHase
T1 construct: His-tag (N); made in house; host or cells: E. coli
T1 sequence (A0A087WNH6 1-473): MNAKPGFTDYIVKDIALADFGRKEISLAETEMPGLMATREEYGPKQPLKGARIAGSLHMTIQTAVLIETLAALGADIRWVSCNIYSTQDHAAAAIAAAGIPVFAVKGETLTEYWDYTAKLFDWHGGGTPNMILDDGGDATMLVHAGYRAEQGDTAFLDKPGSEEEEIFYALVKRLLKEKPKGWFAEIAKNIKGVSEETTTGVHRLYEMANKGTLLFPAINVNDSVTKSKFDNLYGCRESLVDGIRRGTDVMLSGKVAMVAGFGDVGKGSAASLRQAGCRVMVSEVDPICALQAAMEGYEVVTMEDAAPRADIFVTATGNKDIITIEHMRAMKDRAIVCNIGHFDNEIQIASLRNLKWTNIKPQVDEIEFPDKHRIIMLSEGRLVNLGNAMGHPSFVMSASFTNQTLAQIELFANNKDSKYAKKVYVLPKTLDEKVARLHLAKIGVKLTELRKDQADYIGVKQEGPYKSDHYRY
Description: Interaction analyses by ITC were performed with an Affinity ITC microcalorimeter (Low Volume, 24 K Gold Cell; TA Instruments). Prior to measurements, protein was dialyzed into 20 mM MOPS buffer containing 150 mM NaCl. The buffer was adjusted to pH 7 at room temperature, but dialysis was carried out at 4°C. To ensure equal buffer conditions, ligands were dissolved and diluted in the same buffer that was used for the last step of protein dialysis. Measurements were carried out at a constant cell temperature of 25°C. The cell was equilibrated with 40–90 μM SAHase for at least 10 min before the first injection of the respective ligand. The volume of the injections was varied between 2 and 4 μL, depending on the experiment and ligand concentration. The spacing between injections was adjusted according to the time required to reach the binding equilibrium (usually 240–500 s). Ligand titration was continued until peak sizes remained constant, representing only the enthalpy of dilution. The latter was subtracted from the raw data using a mock titration of the ligand into buffer only. Data evaluation was performed with the NanoAnalyze software (v. 3.7.5; TA Instruments), using the model “independent set of multiple binding sites” ([Freire et al., 1990]) for KD determination.

SAHase from humans = molecular target: SAHase from humans; set-up: method as in Li Q.-S. et al., 2007; conditions: human SAHase; ref Li Q.-S. et al., 2007; cited from earlier work
[2] = molecular target: SAHase from Trypanosoma cruzi; set-up: method as in Li Q.-S. et al., 2007; conditions: ref Li Q.-S. et al., 2007; cited from earlier work
[3] = molecular target: T1, Bradyrhizobium elkanii SAHase (BeSAHase); test: Photometric DTNB kinetic assay in the hydrolytic direction (SAH hydrolysis); type: biochemical
Description: Reactions were performed at room temperature in 100 μL sodium phosphate buffer (100 mM, pH 8), supplemented with 1 mM EDTA, 0.2 mM 5,5′-dithiobis(2-nitrobenzoic acid) (DTNB) and SAHase. In experiments with defined NAD^+ concentrations, apo-SAHase was pre-incubated with the respective amount of cofactor for at least 2 h, to ensure that the binding equilibrium was reached before initiation of the reaction. Enzyme concentrations were adjusted according to specific activity, to avoid exceeding maximum reaction rates (vmax) of 0.01 mM⋅min^-1. Higher reaction rates would lead to product inhibition, caused by the accumulation of Ado, in the time frame of the measurement. Reactions were initiated by addition of the substrate (SAH). The reaction rate was monitored photometrically, using DTNB to detect the formation of Hcy. Experiments were carried out in a double-beam UV-vis spectrophotometer (Specord 205, Analytik Jena). Initial reaction rates (v0) were calculated from the first 20–25 s of the reaction, based on the increase of extinction (ΔE) at 412 nm over time (Δt) in a quartz cuvette with a path length (d) of 1 cm, assuming an extinction coefficient (ε) of 14,150 L cm^-1 mol^-1 for the product: v0 = ΔE ⋅ ε412 nm–1 ⋅ d^-1 ⋅ Δt^-1. The assay was validated by comparison to data obtained with the coupled photometric assay described by [Kailing et al. (2017)]. The latter assay was not used in this study, since NCB 10 contributes to oxidation of the monitoring compound NADH in a non-enzymatic way, thereby compromising the reliability of the measurement.
Initial reaction rates were plotted against the concentration of inhibitor and a linear regression analysis was performed as described above for the HPLC assay. The inhibitory constant (Ki) was calculated from the following relation, where KM, [E] and [S] denote the Michaelis–Menten constant, concentration of enzyme and of substrate, respectively: IC50 = Ki ⋅ KM–1 ) + [E]0/2 ([Cha, 1975]). Characterization of the inhibition model was done by measuring Michaelis–Menten kinetics in the presence of varying inhibitor concentrations. KM and maximum reaction rate (vmax) values were obtained by non-linear Michaelis–Menten fitting using GraphPad Prism.
Kinetic-based binding studies to determine the half-maximum effective concentration (EC50) for NAD^+ were carried out with 330 nM SAHase, after pre-incubation with the respective amount of NAD^+, and constant substrate concentrations (0.2 mM SAH). Initial reaction rates were plotted against the NAD^+ concentration and a hyperbolic fit was calculated using GraphPad Prism. The EC50 was calculated as the NAD^+ concentration leading to half-maximum activation of BeSAHase.

[4] = molecular target: T1, Bradyrhizobium elkanii SAHase (BeSAHase); test: HPLC-based endpoint activity assay in the direction of SAH synthesis; type: biochemical
Description: HPLC-based activity measurements in the direction of SAH synthesis were carried out as described by [Kailing et al. (2017)], with constant substrate concentrations (0.5 mM) of both Ado and Hcy. For the cofactor screenings, the assay was supplemented with 2 mM of the respective compound and reactions were initiated with ∼10 μg (700 nM final concentrations in assay) of apo- or holo-BeSAHase, respectively. One set of reactions was terminated after 30 min, the other after 17 h. […] Reactions were terminated after 30 min. Conversions were derived from HPLC chromatograms as described before ([Kailing et al., 2017]), plotted against the concentration of inhibitor and a linear regression analysis was performed with the GraphPad Prism software (v. 6.01). The IC50 was calculated as the concentration leading to half-maximum effect of the inhibitor.

[5] = physiological pH, cited from earlier work
[6] = ref Porter and Boyd, 1992, read-out: KD (estimated)
[7] = calculated from IC50, KM, enzyme and substrate concentration

In the case of `Nc1ncnc2c1ncn2C1OC(CO)C(=O)C1O` (stereo not shown) [3′-ketoadenosine], the Kd (bovine liver SAHase; [6]) is given as 0.0006 µM.
For `C=C1OC(n2cnc3c(N)ncnc32)C(O)C1=O` (stereo not shown) [4′,5′-dehydro-3′-ketoadenosine], the Kd (bovine liver SAHase; [6]) is given as 0.0003 µM.
In the case of `Nc1ncnc2c1ncn2[C@@H]1O[C@H](CO)[C@@H](O)[C@H]1O` [Ado, adenosine], the Kd (bovine liver SAHase; ref Porter and Boyd, 1992, read-out: KD) is listed as 9 µM.
For `NC(=O)C1=CN([C@@H]2O[C@H](COP(=O)(O)OP(=O)(O)OC[C@H]3O[C@@H](n4cnc5c(N)ncnc54)[C@H](O)[C@@H]3O)[C@@H](O)[C@H]2O)C=CC1` [NADH], the KD [1] is given as “low micromolar range”, the KD range (SAHase from humans) is given as “nanomolar” and the KD range [2] is given as “nanomolar”.
For `NC(=O)c1ccc[n+]([C@@H]2O[C@H](COP(=O)([O-])OP(=O)(O)OC[C@H]3O[C@@H](n4cnc5c(N)ncnc54)[C@H](O)[C@@H]3O)[C@@H](O)[C@H]2O)c1` [NAD^+, nicotinamide adenine dinucleotide, reference compound], the EC50 ([3]; 330 nM apo-SAHase pre-incubated with NAD+, 0.2 mM SAH, hyperbolic fit, read-out: EC50 (half-maximum activation of BeSAHase)) was ~10 µM and 11.2 µM, the KD [1] was “low micromolar range” and the “reconstitution of activity of apo-SAHase” value ([4]; apo-BeSAHase, 2 mM compound, 0.5 mM Ado and Hcy, 30 min and 17 h) was “recovered highly active enzyme”. The “time to full substrate conversion after re-supplementation of apo-SAHase” value ([4]; apo-BeSAHase, HPLC-based assay conditions) was “less than 30 min” and the redox potential ([5]; NAD+/NADH, ref Burton and Wilson, 1953) was -320 mV.
With `N#Cc1ccc[n+](Cc2ccccc2)c1` [NCB 10] the IC50 ([3]; 285 nM NAD+-saturated BeSAHase, 0.2 mM SAH, linear regression) was ~14000 µM and 14400 µM, the inhibition mechanism ([3]; Michaelis-Menten kinetics with varying inhibitor concentrations) was “non-competitive” and the Ki [3, 7] was roughly 2000 µM. The “Ki,hydrolysis” value [3, 7] was “millimolar range”, the “binding to apo-BeSAHase” value [1] was “small binding enthalpies” and the “binding to apo-BeSAHase” value ([1]; listed as 10) was “Neither titration of holo-, nor of apo-SAHase gave any hint of a binding event”. The “binding to holo-BeSAHase” value [1] was “small binding enthalpies”, the “binding to holo-BeSAHase” value ([1]; listed as 10) was “Neither titration of holo-, nor of apo-SAHase gave any hint of a binding event” and the IC50 ([4]; 100 nM NAD+-saturated SAHase, 0.5 mM Ado and Hcy, 30 min, linear regression) was ~1400 µM and 1440 µM. The inhibition at 2000 µM ([4]; holo-SAHase in the presence of excess NAD+, 2 mM compound, read-out: inhibition of substrate conversion) was roughly 75% and the redox potential ([5]; 10ox/10red, ref Ostovic et al., 1985) was -220 mV.
